Values quoted from earlier work as cited in patent publication US6949518B1, “Methods for treating macular degeneration with topiramate” (priority 2003, dated 2005).

Legend:
[1] = test system: patients with type 2 diabetes
[2] = test system: carbonic anhydrase
[3] = elimination predominantly unchanged via the renal route

What does the source list for CC1(C)O[C@@H]2[C@@H](CO[C@@]3(COS(N)(=O)=O)OC(C)(C)O[C@@H]23)O1 [topiramate, 2,3:4,5-Di-O-isopropylidene-β-D-fructopyranose sulfamate]?
dendrite length ([1]; by the end of trial): increased; peroneal nerve amplitude ([1]; by the end of trial): increased; total neuropathy scores ([1]; end of trial, decreased from baseline 14, 11 patients, 25 mg/day titrated over 42 days to maximum tolerated dose or 100 mg/day, then 84 more days): 11.8; carbonic anhydrase inhibition [2]: weak carbonic anhydrase inhibitor; plasma t½ [3]: 20 to 30 h; solubility in acetone, chloroform, dimethylsulfoxide, and ethanol (organic solvents): freely soluble; pH of saturated solution (saturated solution): 6.3
